Holding throughout (format): cell-based
The subject of one assay is Mino cells. Briefly: Antiproliferative effect, MTS cell viability assay, Mino cells. Conditions: Homo sapiens, MINO, Mino mantle cell lymphoma cells; read-out: IC50 (anti-proliferation) Mino cells. In outline:
(§1)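 Absorbance at 490 nm of formazan, formed by metabolically active cells from MTS tetrazolium, served as the viability measure after a 72 h treatment across a 0.001–10 μM concentration series plus untreated control.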
In general terms: Tetrazolium assays rely on reduction of a dye to a coloured formazan, in cell work by metabolically active cells.

Another assay concerns JeKo-1 cells. As to the kind of experiment: Antiproliferative effect, MTS cell viability assay, JeKo-1 cells. Particulars: Homo sapiens; JeKo-1 mantle cell lymphoma cells; read-out: IC50 (anti-proliferation) JeKO-1 cells. The procedure, abridged:
as §1

In the next assay the target is BTK (Homo sapiens, UniProt Q06187). Briefly: BTK degradation, DC50 and Dmax of Table 1 (cell line not given). Further details: endogenous in cells. Particulars: for DC50: concentration giving 50% reduction of BTK expression level.
BTK, sequence (Q06187 whole entry): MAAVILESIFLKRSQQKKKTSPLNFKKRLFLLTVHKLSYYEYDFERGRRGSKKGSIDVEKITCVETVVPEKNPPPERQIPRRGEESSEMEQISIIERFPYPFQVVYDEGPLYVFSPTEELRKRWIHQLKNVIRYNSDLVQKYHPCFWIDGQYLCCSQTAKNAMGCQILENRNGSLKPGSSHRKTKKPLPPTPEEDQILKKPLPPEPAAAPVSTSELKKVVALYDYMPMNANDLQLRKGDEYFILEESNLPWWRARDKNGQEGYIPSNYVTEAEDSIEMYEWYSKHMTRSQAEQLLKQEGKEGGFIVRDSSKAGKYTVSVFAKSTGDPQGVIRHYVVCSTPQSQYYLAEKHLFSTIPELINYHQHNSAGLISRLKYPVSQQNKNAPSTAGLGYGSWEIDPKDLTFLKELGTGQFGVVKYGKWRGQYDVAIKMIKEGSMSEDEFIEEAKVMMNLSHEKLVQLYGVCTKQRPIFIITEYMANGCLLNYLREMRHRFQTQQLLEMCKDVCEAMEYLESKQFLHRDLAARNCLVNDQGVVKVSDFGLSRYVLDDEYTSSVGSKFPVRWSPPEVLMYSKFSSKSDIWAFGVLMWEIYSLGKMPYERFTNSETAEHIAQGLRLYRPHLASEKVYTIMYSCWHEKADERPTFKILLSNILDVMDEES

This passage reports IC50, Dmax and DC50 results from US12139492B2 (Endotarget Inc., priority 2021, dated 2024).

For `Nc1ncnc2c1c(-c1ccc(Oc3ccccc3)cc1)nn2[C@@H]1CCCN(CC2CCN(C(=O)N3CCC(C4CCN(c5ccc6c(c5)CN(C5CCC(=O)NC5=O)C6=O)CC4)CC3)CC2)C1` (stereo partly drawn) [Compound 30, 3-(5-(1′-(4-(((R)-3-(4-amino-3-(4-phenoxyphenyl)-1H-pyrazolo[3,4-d]pyrimidin-1-yl)piperidin-1-yl)methyl)piperidine-1-carbonyl)-[4,4′-bipiperidin]-1-yl)-1-oxoisoindolin-2-yl)piperidine-2,6-dione], the IC50 with Mino cells lay in the range of 1000 to 10000 nM. The IC50 in the assay on JeKo-1 cells fell in the range of 1000 to 10000 nM. Also, on BTK, the greatest degradation seen (Dmax) – broadly, the greatest extent of degradation seen – was greater than 90% and the DC50 (as a rule, the midpoint of the concentration-degradation curve) lay within 10 to 50 nM.

Consider `Nc1ncnc2c1c(-c1ccc(Oc3ccccc3)cc1)nn2C1CCN(C(=O)N2CCC(N3CCN(c4ccc5c(c4)CN(C4CCC(=O)NC4=O)C5=O)CC3)CC2)CC1` (stereo not drawn) [Compound 82, 3-(5-(4-(1-(4-(4-amino-3-(4-phenoxyphenyl)-1H-pyrazolo(3,4-d)pyrimidin-1-yl)piperidine-1-carbonyl)piperidin-4-yl)piperazin-1-yl)-1-oxoisoindolin-2-yl)piperidine-2,6-dione], for which the IC50 with Mino cells is greater than 10000 nM. The IC50 in the assay with JeKo-1 cells is greater than 10000 nM. At BTK, this compound yielded a Dmax greater than 75% and a DC50 of 10 to 50 nM.

For the compound `Nc1ncnc2c1c(-c1ccc(Oc3ccccc3)cc1)nn2[C@@H]1CCCN(C2CCN(C(=O)N3CCC(CCN4CCC(c5ccc6c(c5)C(=O)N(C5CCC(=O)NC5=O)C6=O)CC4)CC3)CC2)C1` (stereo partly drawn) [Compound 183, 5-(1-(2-(1-((R)-3-(4-amino-3-(4-phenoxyphenyl)-1H-pyrazolo[3,4-d]pyrimidin-1-yl)-[1,4′-bipiperidine]-1′-carbonyl)piperidin-4-yl)ethyl)piperidin-4-yl)-2-(2,6-dioxopiperidin-3-yl)isoindoline-1,3-dione], the IC50 in the assay on Mino cells is 1000 to 10000 nM. For the same compound, the IC50 in the assay with JeKo-1 cells was greater than 10000 nM. Also, on BTK, the Dmax was greater than 75% and the DC50 was 10 to 50 nM.

On to `Nc1ncnc2c1c(-c1ccc(Oc3ccccc3)cc1)nn2C1CCN(C(=O)N2CCC(CCN3CCN(c4ccc5c(c4)CN(C4CCC(=O)NC4=O)C5=O)CC3)CC2)CC1` (stereo not drawn) [Compound 94, 3-(5-(4-(2-(1-(4-(4-amino-3-(4-phenoxyphenyl)-1H-pyrazolo[3,4-d]pyrimidin-1-yl)piperidine-1-carbonyl)piperidin-4-yl)ethyl)piperazin-1-yl)-1-oxoisoindolin-2-yl)piperidine-2,6-dione], for which, in the assay on Mino cells, the IC50 was less than 1000 nM. The IC50 in the assay with JeKo-1 cells lay within 1000 to 10000 nM. On BTK, this compound gave a Dmax greater than 90% and a DC50 of 10 to 50 nM.

Take `Nc1ncnc2c1c(-c1ccc(Oc3ccccc3)cc1)nn2[C@@H]1CCCN(C(=O)N2CCC(CCN3CCN(c4ccc5c(c4)CN(C4CCC(=O)NC4=O)C5=O)CC3)CC2)C1` (stereo partly drawn) [Compound 64, 3-(5-(4-(2-(1-((R)-3-(4-amino-3-(4-phenoxyphenyl)-1H-pyrazolo[3,4-d]pyrimidin-1-yl)piperidine-1-carbonyl)piperidin-4-yl)ethyl)piperazin-1-yl)-1-oxoisoindolin-2-yl)piperidine-2,6-dione]: in the assay with Mino cells, the IC50 is less than 1000 nM. The IC50 in the assay on JeKo-1 cells is 1000 to 10000 nM. For the same compound, on BTK, the maximal degradation (Dmax) was greater than 90% and the DC50 is less than 10 nM.

In the case of `Nc1ncnc2c1c(-c1ccc(Oc3ccccc3)cc1)nn2[C@@H]1CCCN(C2CCN(C(=O)N3CCN(CCCN4CCC(c5ccc6c(c5)CN(C5CCC(=O)NC5=O)C6=O)CC4)CC3)CC2)C1` (stereo partly drawn) [Compound 192, 3-(5-(1-(3-(4-((R)-3-(4-amino-3-(4-phenoxyphenyl)-1H-pyrazolo[3,4-d]pyrimidin-1-yl)-[1,4′-bipiperidine]-1′-carbonyl)piperazin-1-yl)propyl)piperidin-4-yl)-1-oxoisoindolin-2-yl)piperidine-2,6-dione], the IC50 in the assay with Mino cells is greater than 10000 nM. Besides, the IC50 in the assay on JeKo-1 cells is greater than 10000 nM. Moreover, at BTK, the Dmax was greater than 75% and the DC50 was 10 to 50 nM.

Regarding `Nc1ncnc2c1c(-c1ccc(Oc3ccccc3)cc1)nn2[C@@H]1CCCN(CC2CCN(CCC3CCN(c4ccc5c(c4)CN(C4CCC(=O)NC4=O)C5=O)CC3)CC2)C1` (stereo partly drawn) [Compound 132, 3-(5-(4-(2-(4-(((R)-3-(4-amino-3-(4-phenoxyphenyl)-1H-pyrazolo[3,4-d]pyrimidin-1-yl)piperidin-1-yl)methyl)piperidin-1-yl)ethyl)piperidin-1-yl)-1-oxoisoindolin-2-yl)piperidine-2,6-dione], the IC50 with Mino cells lay in the range of 1000 to 10000 nM. In the assay on JeKo-1 cells, the IC50 fell in the range of 1000 to 10000 nM. For the same compound, at BTK, the Dmax was greater than 90% and the half-maximal degradation concentration (DC50) was in the range of 10 to 50 nM.

As for `Nc1ncnc2c1c(-c1ccc(Oc3ccccc3)cc1)nn2[C@@H]1CCCN(C2CCN(C(=O)N3CCN(CC4CCN(c5ccc6c(c5)C(=O)N(C5CCC(=O)NC5=O)C6=O)CC4)CC3)CC2)C1` (stereo partly drawn) [Compound 171, 5-(4-((4-((R)-3-(4-amino-3-(4-phenoxyphenyl)-1H-pyrazolo[3,4-d]pyrimidin-1-yl)-[1,4′-bipiperidine]-1′-carbonyl)piperazin-1-yl)methyl)piperidin-1-yl)-2-(2,6-dioxopiperidin-3-yl)isoindoline-1,3-dione], the IC50 with Mino cells and with JeKo-1 cells was 1000 to 10000 nM in each case. Moreover, the Dmax at BTK was greater than 90%. Moreover, the DC50 on BTK fell in the range of 10 to 50 nM.

As for `Nc1ncnc2c1c(-c1ccc(Oc3ccccc3)cc1)nn2[C@@H]1CCCN(C(=O)N2CCC(CN3CCC(c4ccc5c(c4)C(=O)N(C4CCC(=O)NC4=O)C5=O)CC3)CC2)C1` (stereo partly drawn) [Compound 61, 5-(1-((1-((R)-3-(4-amino-3-(4-phenoxyphenyl)-1H-pyrazolo[3,4-d]pyrimidin-1-yl)piperidine-1-carbonyl)piperidin-4-yl)methyl)piperidin-4-yl)-2-(2,6-dioxopiperidin-3-yl)isoindoline-1,3-dione], the IC50 with Mino cells was less than 1000 nM. For the same compound, the IC50 with JeKo-1 cells was less than 1000 nM. On BTK, this compound gave a Dmax greater than 90% and a DC50 of 10 to 50 nM.

For the compound `Nc1ncnc2c1c(-c1ccc(Oc3ccccc3)cc1)nn2C1CCN(C(=O)N2CCC(CCCC3CCN(c4ccc5c(c4)CN(C4CCC(=O)NC4=O)C5=O)CC3)CC2)CC1` (stereo not drawn) [Compound 126, 3-(5-(4-(3-(1-(4-(4-amino-3-(4-phenoxyphenyl)-1H-pyrazolo[3,4-d]pyrimidin-1-yl)piperidine-1-carbonyl)piperidin-4-yl)propyl)piperidin-1-yl)-1-oxoisoindolin-2-yl)piperidine-2,6-dione], in the assay on Mino cells, the IC50 was in the range of 1000 to 10000 nM. In addition, the IC50 in the assay on JeKo-1 cells was greater than 10000 nM. For the same compound, at BTK, the greatest degradation seen (Dmax) was greater than 90% and the DC50 was greater than 50 nM.

Turning to `Nc1ncnc2c1c(-c1ccc(Oc3ccccc3)cc1)nn2[C@@H]1CCCN(C(=O)N2CCN(CC3CCN(c4ccc5c(c4)CN(C4CCC(=O)NC4=O)C5=O)CC3)CC2)C1` (stereo partly drawn) [Compound 58, 3-(5-(4-((4-((R)-3-(4-amino-3-(4-phenoxyphenyl)-1H-pyrazolo[3,4-d]pyrimidin-1-yl)piperidine-1-carbonyl)piperazin-1-yl)methyl)piperidin-1-yl)-1-oxoisoindolin-2-yl)piperidine-2,6-dione], in the assay on Mino cells, the IC50 was less than 1000 nM. The IC50 in the assay on JeKo-1 cells is less than 1000 nM. In addition, at BTK, the Dmax was greater than 90% and the DC50 was in the range of 10 to 50 nM.

For `Nc1ncnc2c1c(-c1ccc(Oc3ccccc3)cc1)nn2C1CCN(C(=O)N2CCC(c3ccc4c(c3)CN(C3CCC(=O)NC3=O)C4=O)CC2)CC1` (stereo not drawn) [Compound 78, 3-(5-(1-(4-(4-amino-3-(4-phenoxyphenyl)-1H-pyrazolo[3,4-d]pyrimidin-1-yl)piperidine-1-carbonyl)piperidin-4-yl)-1-oxoisoindolin-2-yl)piperidine-2,6-dione], the IC50 in the assay with Mino cells was greater than 10000 nM. The IC50 in the assay on JeKo-1 cells is greater than 10000 nM. On BTK, this compound returned a Dmax greater than 50% and a DC50 greater than 50 nM.

As for `Nc1ncnc2c1c(-c1ccc(Oc3ccccc3)cc1)nn2[C@@H]1CCCN(CC2CCN(CCN3CCN(c4ccc5c(c4)C(=O)N(C4CCC(=O)NC4=O)C5=O)CC3)CC2)C1` (stereo partly drawn) [Compound 133, 5-(4-(2-(4-(((R)-3-(4-amino-3-(4-phenoxyphenyl)-1H-pyrazolo[3,4-d]pyrimidin-1-yl)piperidin-1-yl)methyl)piperidin-1-yl)ethyl)piperazin-1-yl)-2-(2,6-dioxopiperidin-3-yl)isoindoline-1,3-dione], the IC50 in the assay on Mino cells was less than 1000 nM. For the same compound, the IC50 in the assay on JeKo-1 cells lay in the range of 1000 to 10000 nM. On BTK, this compound came in with a Dmax greater than 90% and a half-maximal degradation concentration (DC50) of 10 to 50 nM.

For the compound `Nc1ncnc2c1c(-c1ccc(Oc3ccccc3)cc1)nn2C1CCN(C(=O)N2CCC(CCCN3CCN(c4ccc5c(c4)C(=O)N(C4CCC(=O)NC4=O)C5=O)CC3)CC2)CC1` (stereo not drawn) [Compound 117, 5-(4-(3-(1-(4-(4-amino-3-(4-phenoxyphenyl)-1H-pyrazolo[3,4-d]pyrimidin-1-yl)piperidine-1-carbonyl)-piperidin-4-yl)propyl)piperazin-1-yl)-2-(2,6-dioxopiperidin-3-yl)isoindoline-1,3-dione], in the assay on Mino cells, the IC50 was in the range of 1000 to 10000 nM. In the assay with JeKo-1 cells, the IC50 lay within 1000 to 10000 nM. Moreover, at BTK, the Dmax was greater than 75% and the 50% degradation concentration (DC50) is greater than 50 nM.

As to `Nc1ncnc2c1c(-c1ccc(Oc3ccccc3)cc1)nn2C1CCCN(CCOCCOCCN2CCN(c3ccc4c(c3)C(=O)N(C3CCC(=O)NC3=O)C4=O)CC2)C1` (stereo not drawn) [Compound 3, 5-(4-(2-(2-(2-(3-(4-amino-3-(4-phenoxyphenyl)-1H-pyrazolo[3,4-d]pyrimidin-1-yl)piperidin-1-yl)ethoxy)ethoxy)ethyl)piperazin-1-yl)-2-(2,6-dioxopiperidin-3-yl)isoindoline-1,3-dione], the IC50 with Mino cells lay within 1000 to 10000 nM. For the same compound, the IC50 in the assay with JeKo-1 cells was 1000 to 10000 nM. At BTK, this compound returned a maximal degradation (Dmax) greater than 90% and a half-maximal degradation concentration (DC50) of less than 10 nM.
